These are literature values, as cited in patent publication US20230364129A1, “TOPICAL COMPOSITIONS” (Prime Performance Research LLC, priority 2022, published 2023).

In data set [1] the test system is NF-κB transcription factor in antigen presenting cells.
Data set [2] concerns hind paw oedema, synovitis and destruction of the articular cartilage. As to conditions: orally administered; several animal studies (Volpi, 2011).
The conditions of data set [3]: carnosine 200 μmol/L; hydroxyl and/or peroxy-type radicals (Drafi, 2010).
Data set [4] deals with human colorectal cancer cells. The note with it: by suppressing NF-κB/STAT1 signaling (Lee, 2018).

Chondroitin sulfate [CS]: in data set [1] (antigen presenting cells (Zhang, 2015)), the “activation of the NF-κB transcription factor” value is given as “could activate”. Moreover, in data set [1] (through the TLR/MyD88 pathway (Zhang, 2015)), the TNF-α production entry is “induce TNF-α production”. Also, the “hind paw oedema, synovitis and destruction of the articular cartilage” value in data set [2] is “significantly inhibited”.
Regarding `NCCC(=O)N[C@@H](Cc1cnc[nH]1)C(=O)O` [carnosine, beta-alanyl-L-histidine], the “effect on hyaluronan degradation” value in data set [3] is recorded as “protective action”. In data set [4], the “cell cycle arrest and apoptosis” value was “induces cell cycle arrest and apoptosis”.
